# Measurements: article PMC12013366, “In vitro evaluation of the immunogenic potential of gramicidin S and its photocontrolled analogues” (RSC Medicinal Chemistry, 2025)
# Non-standard residues stand in square brackets, D forms with d. Residues, ends and D or L forms follow the SMILES beside them. Orn = NCCC[C@H](N)C(=O)O
# Tested on: HMGB1 released by HepG2 cells
# Test: HMGB1 release, bioluminescence immunoassay (Lumit HMGB1) in the supernatant
# Format: cell-based, human
# Conditions: 64 μM, n=3
# Description: HMGB1 was quantified (using a calibration curve) by a bioluminescence assay in the supernatant.
# For this, 25 000 cells per well of HepG2 were seeded in 200 μL of complete DMEM in a 96-well black-wall transparent-bottom plate (655090, Greiner). After 24 h, the medium was aspired, and 100 μL of DPBS was added for rinsing and then aspired. Then, 100 μL of Leibovitz L-15 medium that contained 10% FBS was added. After that, 2× concentrated solutions of tested compounds (64 and 8 μM, triplicates for each time point) were prepared in the same Leibovitz L-15 medium in an intermediate plate and dispensed in a volume of 100 μL to the cell-containing plate. The calibration curve was constructed using a HMGB1 stock solution (1000–0.24 ng mL^−1, 4-fold dilution, 7 points, n = 2) from Lumit HMGB1 (Human/Mouse) immunoassay kit (W6110, Promega) and dispensed in a 96-well white-wall transparent-bottom working plate (353377, Falcon). After 30 min, 3 h and 24 h, aliquots from the intermediate plate (tested compounds) were transferred to the working plate. […] The plate was shaken for 1 min and incubated for 1 h at room temperature. […] The luminescence signal was collected throughout the visible range (360–700 nm). The data were analyzed using GraphPad Prism 10.
structure (smiles),measurement,setting,value
"CC(C)C[C@@H]1NC(=O)[C@H](CCCN)NC(=O)[C@H](C(C)C)NC(=O)[C@@H]2CCCN2C(=O)[C@@H](Cc2ccccc2)NC(=O)[C@H](CC(C)C)NC(=O)[C@H](CCCN)NC(=O)[C@H](C(C)C)NC(=O)[C@@H]2CCCN2C(=O)[C@@H](Cc2ccccc2)NC1=O [Gramicidin S, gramicidin S] (cyclo(V[Orn]L[dF]PV[Orn]L[dF]P))",HMGB1 detected in the supernatant,"30 min post-treatment, interpolated from calibration curve",50 ng/mL
same,HMGB1 detected in the supernatant,"at 3 h, constant up to 24 h",10 ng/mL
